Where “and” joins values, the source holds several entries; their conditions need not be identical. Equal values may be shown once. Read-outs that look alike come from different tables or passages of the source.

Assay [1] concerns SK(+)GAS. The assay can be described thus: GAS growth by OD600 nm of culture. Type of assay: cell-based, Group A Streptococcus. The note with it: Streptococcus; for activity at 5 µg/mL: read-out: GAS Growth (% control), compound conc. 5 μg/ml; for activity at 10 µg/mL: read-out: GAS Growth (% control), compound conc. 10 μg/ml; for activity at 20 µg/mL: read-out: GAS Growth (% control), compound conc. 20 μg/ml; for activity at 30 µg/mL: read-out: GAS Growth (% control), compound conc. 30 μg/ml; for activity at 40 µg/mL: read-out: GAS Growth (% control), compound conc. 40 μg/ml; for activity at 50 µg/mL: read-out: GAS Growth (% control), compound conc. 50 μg/ml; for activity at 60 µg/mL: read-out: GAS Growth (% control), compound conc. 60 μg/ml; for activity at 70 µg/mL: read-out: GAS Growth (% control), compound conc. 70 μg/ml; for activity at 0.1 µg/mL: read-out: GAS Growth (% control), compound conc. 0.1 μg/ml; for activity at 0.3 µg/mL: read-out: GAS Growth (% control), compound conc. 0.3 μg/ml; for activity at 2.5 µg/mL: read-out: GAS Growth (% control), compound conc. 2.5 μg/ml.

Assay [2] concerns streptokinase (SK).
Experimental: SK− Ecoli and SKCtr1's dose response relationship with these compounds were then examined.
The effects of 10 hit compounds out of the 23 identified were further tested by dose response assays. […] These compounds were tested for inhibition of ska expression by measuring SK activity in supernatants of GAS exposed to the test compound or control vehicle alone (DMSO). SK(+)GAS were cultured with hit compounds at a dose range of 10 nM to 100 μM at 37° C. for 16-20 hours. Supernatants of SK(+)GAS cultures were measured for SK activity using chromogenic substrate 2403 (Diapharma group Inc., West Chester, Ohio), according to the manufacturer's instruction and simultaneously monitored for nonspecific effects on GAS growth by measuring OD600 nm.
The positive compounds identified in dose response assays are subjected to SK assay to identify compounds inhibiting SK expression in SK(+)GAS. Briefly, SK(+)GAS is grown at the presence of hit compounds at a dose range determined by dose response assays within which SK(−) GAS growth is inhibited less than 10% while SKKanGAS growth is inhibited more than 50% under 20 μg/ml kanamycin.

As to `C=CCn1c(SCC)nc2c(c1=O)C(C)(C)Cc1ccccc1-2` [1S-26137], in assay [1], the activity at 5 µg/mL came to 89%, the activity at 10 µg/mL turned out to be 89%, the activity at 20 µg/mL was 91% and the activity at 30 µg/mL was determined as 105%. Also, the activity at 40 µg/mL in assay [1] was 98%. The “SK Expression (% control)” value in assay [2] (compound conc. 5 μg/ml) was found to be 21 % control. Moreover, in assay [2] (compound conc. 10 μg/ml), the “SK Expression (% control)” value is 20 % control. Besides, the “SK Expression (% control)” value in assay [2] (compound conc. 20 μg/ml) was 22 % control. The “SK Expression (% control)” value in assay [2] (compound conc. 40 μg/ml) worked out at 19 % control.

Consider `C=CCn1c(SCC(=O)OCC)nc2c(c1=O)C(C)(C)Cc1ccccc1-2` [1S-30398], for which, in assay [1], the activity at 5 µg/mL turned out to be 98%, the activity at 10 µg/mL is 98%, the activity at 20 µg/mL was 99% and the activity at 40 µg/mL is 111%. The “SK Expression (% control)” value in assay [2] (compound conc. 5 μg/ml) was 42 % control. The “SK Expression (% control)” value in assay [2] (compound conc. 10 μg/ml) is 36 % control. Also, the “SK Expression (% control)” value in assay [2] (compound conc. 20 μg/ml) worked out at 38 % control. For the same molecule, the “SK Expression (% control)” value in assay [2] (compound conc. 40 μg/ml) was found to be 39 % control.

As to `CCn1c(SCc2ccccc2)nc2c(c1=O)C1(CCCC1)Cc1ccccc1-2` [AK968], in assay [1], the activity at 10 µg/mL came to 96%, the activity at 20 µg/mL came out at 105%, the activity at 30 µg/mL turned out to be 112% and the activity at 40 µg/mL is 117%. For the same molecule, in assay [1], the activity at 50 µg/mL was found to be 124%, the activity at 60 µg/mL was 123% and the activity at 70 µg/mL stood at 130%. Moreover, the “SK Expression (% control)” value in assay [2] (compound conc. 10 μg/ml) is recorded as 83 % control. In addition, the “SK Expression (% control)” value in assay [2] (compound conc. 20 μg/ml) worked out at 64 % control. Besides, the “SK Expression (% control)” value in assay [2] (compound conc. 30 μg/ml) is on record as 57 % control. The “SK Expression (% control)” value in assay [2] (compound conc. 40 μg/ml) came to 54 % control. Moreover, the “SK Expression (% control)” value in assay [2] (compound conc. 50 μg/ml) is given as 40 % control. Moreover, the “SK Expression (% control)” value in assay [2] (compound conc. 60 μg/ml) came out at 33 % control. Also, in assay [2] (compound conc. 70 μg/ml), the “SK Expression (% control)” value is reported as 45 % control.

As to `C=CCn1c(SCc2ccc(OC)cc2)nc2c(c1=O)C1(CCCCC1)Cc1ccccc1-2` [CCG-102483, 3-allyl-2-(4-methoxybenzylthio)-3H-spiro[benzo[h]quinazoline-5,1′-cyclohexan]-4(6H)-one], in assay [1], the activity at 5 µg/mL was found to be 104% and the activity at 40 µg/mL is 115%. Moreover, the “SK Expression (% control)” value in assay [2] (compound conc. 5 μg/ml) is listed as 119 % control. Further, the “SK Expression (% control)” value in assay [2] (compound conc. 40 μg/ml) was 80 % control.

Regarding `C=CCn1c(SCc2cccc(OC)c2)nc2c(c1=O)C1(CCCCC1)Cc1ccccc1-2` [CCG-102485, 3-allyl-2-(3-methoxybenzylthio)-3H-spiro[benzo[h]quinazoline-5,1′-cyclohexan]-4(6H)-one], in assay [1], the activity at 5 µg/mL turned out to be 102%. The activity at 40 µg/mL in assay [1] is 104%. For the same molecule, the “SK Expression (% control)” value turned out to be 81 % control in assay [2] (compound conc. 5 μg/ml) and 91 % control in assay [2] (compound conc. 40 μg/ml).

Take `C=CCn1c(SCCc2ccc(OC)cc2)nc2c(c1=O)C1(CCCCC1)Cc1ccccc1-2` [CCG-102489, 3-allyl-2-(4-methoxyphenethylthio)-3H-spiro[benzo[h]quinazoline-5,1′-cyclohexan]-4(6H)-one]: the activity at 5 µg/mL in assay [1] was determined as 106%. Besides, the activity at 40 µg/mL in assay [1] came to 114%. The “SK Expression (% control)” value in assay [2] (compound conc. 5 μg/ml) is on record as 91 % control; in assay [2] (compound conc. 40 μg/ml) it was 79 % control.

Turning to `C=CCn1c(SCc2ccc(NC(C)=O)cc2)nc2c(c1=O)C1(CCCCC1)Cc1ccccc1-2` [CCG-102491, N-(4-((3-allyl-4-oxo-4,6-dihydro-3H-spiro[benzo[h]quinazoline-5,1′-cyclohexane]-2-ylthio)methyl)phenyl)acetamide], in assay [1], the activity at 5 µg/mL was 109% and the activity at 40 µg/mL was 112%. Also, the “SK Expression (% control)” value in assay [2] (compound conc. 5 μg/ml) worked out at 85 % control. In assay [2] (compound conc. 40 μg/ml), the “SK Expression (% control)” value stood at 96 % control.

For `C=CCn1c(SCCOC)nc2c(c1=O)C1(CCCCC1)Cc1ccccc1-2` [CCG-102493, 3-allyl-2-(2-methoxyethylthio)-3H-spiro[benzo[h]quinazoline-5,1′-cyclohexan]-4(6H)-one], the activity at 0.1 µg/mL in assay [1] was 99%. Further, the activity at 0.3 µg/mL in assay [1] was determined as 103%. In addition, in assay [1], the activity at 2.5 µg/mL worked out at 93%. Further, the activity at 5 µg/mL in assay [1] stood at 92%. In addition, the activity at 10 µg/mL in assay [1] is 94%. The activity at 30 µg/mL in assay [1] came out at 110%. In assay [1], the activity at 50 µg/mL was 123%. The activity at 60 µg/mL in assay [1] was 125%. For the same molecule, in assay [1], the activity at 70 µg/mL is 129%. Besides, the “SK Expression (% control)” value in assay [2] (compound conc. 0.1 μg/ml) is 75 % control; in assay [2] (compound conc. 0.3 μg/ml), 98 % control; in assay [2] (compound conc. 1.0 μg/ml), 54 % control; in assay [2] (compound conc. 2.5 μg/ml), 101 % control; in assay [2] (compound conc. 3 μg/ml), 51 % control; in assay [2] (compound conc. 5 μg/ml), 98 % control and 50 % control. The “SK Expression (% control)” value in assay [2] (compound conc. 30 μg/ml) was 64 % control and 42 % control; in assay [2] (compound conc. 50 μg/ml) it was 49 % control; in assay [2] (compound conc. 60 μg/ml), 52 % control and 27 % control; in assay [2] (compound conc. 70 μg/ml), 52 % control.

With `C=CCn1c(SCCN(C)C)nc2c(c1=O)C1(CCCCC1)Cc1ccccc1-2` [CCG-102495, 3-allyl-2-(2-(dimethylamino)ethylthio)-3H-spiro[benzo[h]quinazoline-5,1′-cyclohexan]-4(6H)-one], in assay [1], the activity at 20 µg/mL was 18%. Also, in assay [2] (compound conc. 20 μg/ml), the “SK Expression (% control)” value turned out to be 17 % control.

As to `C=CCn1c(SC)nc2c(c1=O)C1(CCCCC1)Cc1ccccc1-2` [CCG-102620, 3-Allyl-2-(methylthio)-3H-spiro[benzo[h]quinazoline-5,1′-cyclohexan]-4(6H)-one], in assay [1], the activity at 5 µg/mL worked out at 104%, the activity at 10 µg/mL turned out to be 106%, the activity at 20 µg/mL came out at 104% and the activity at 40 µg/mL worked out at 115%. Besides, the “SK Expression (% control)” value in assay [2] (compound conc. 5 μg/ml) is 62 % control. Moreover, in assay [2] (compound conc. 10 μg/ml), the “SK Expression (% control)” value is reported as 50 % control. Moreover, the “SK Expression (% control)” value in assay [2] (compound conc. 20 μg/ml) is recorded as 33 % control. The “SK Expression (% control)” value in assay [2] (compound conc. 40 μg/ml) was found to be 27 % control.

As for `C=CCn1c(OCC)nc2c(c1=O)C1(CCCCC1)Cc1ccccc1-2` [CCG-102622, 3-Allyl-2-ethoxy-3H-spiro[benzo[h]quinazoline-5,1′-cyclohexan]-4(6H)-one], the activity at 5 µg/mL in assay [1] is 99%. The activity at 10 µg/mL in assay [1] turned out to be 100%. Also, the activity at 20 µg/mL in assay [1] was 103%. The activity at 40 µg/mL in assay [1] worked out at 113%. For the same molecule, the “SK Expression (% control)” value in assay [2] (compound conc. 5 μg/ml) was determined as 43 % control; in assay [2] (compound conc. 10 μg/ml), 41 % control; in assay [2] (compound conc. 20 μg/ml), 38 % control; in assay [2] (compound conc. 40 μg/ml), 23 % control.

Take `C=CCn1c(SCCOC)nc2c(c1=O)C(C)(C)Cc1ccccc1-2` [CCG-102624, 3-Allyl-2-(2-methoxyethylthio)-5,5-dimethyl-5,6-dihydrobenzo[h]quinazolin-4(3H)-one]: the activity at 0.1 µg/mL in assay [1] turned out to be 100%. In addition, the activity at 0.3 µg/mL in assay [1] turned out to be 98%. The activity at 2.5 µg/mL in assay [1] came to 101%. The activity at 5 µg/mL in assay [1] came to 93%. Besides, in assay [1], the activity at 10 µg/mL was 94%. Further, the activity at 20 µg/mL in assay [1] came out at 93%. Besides, the activity at 40 µg/mL in assay [1] was found to be 87%. Also, the activity at 70 µg/mL in assay [1] is 113%. In addition, the “SK Expression (% control)” value was 90 % control in assay [2] (compound conc. 0.1 μg/ml); 97 % control in assay [2] (compound conc. 0.3 μg/ml); 79 % control in assay [2] (compound conc. 1.0 μg/ml); 35 % control in assay [2] (compound conc. 3 μg/ml); 30 % control in assay [2] (compound conc. 5 μg/ml); 33 % control and 29 % control in assay [2] (compound conc. 10 μg/ml). Moreover, the “SK Expression (% control)” value is 30 % control in assay [2] (compound conc. 20 μg/ml), 26 % control in assay [2] (compound conc. 30 μg/ml), 23 % control in assay [2] (compound conc. 40 μg/ml) and 28 % control in assay [2] (compound conc. 60 μg/ml).

`C=CCn1c(SCC(N)=O)nc2c(c1=O)C(C)(C)Cc1ccccc1-2` [CCG-203037, 2-(3-Allyl-5,5-dimethyl-4-oxo-3,4,5,6-tetrahydrobenzo[h]quinazolin-2-ylthio)acetamide]: in assay [1], the activity at 0.1 µg/mL came to 98%, the activity at 0.3 µg/mL was found to be 99%, the activity at 2.5 µg/mL came to 101% and the activity at 5 µg/mL was 102%. In assay [1], the activity at 20 µg/mL came to 105%, the activity at 40 µg/mL came out at 102% and the activity at 70 µg/mL was determined as 106%. In addition, in assay [2] (compound conc. 0.1 μg/ml), the “SK Expression (% control)” value amounted to 96 % control. Besides, in assay [2] (compound conc. 0.3 μg/ml), the “SK Expression (% control)” value is on record as 97 % control. The “SK Expression (% control)” value in assay [2] (compound conc. 1.0 μg/ml) was 96 % control. Further, the “SK Expression (% control)” value in assay [2] (compound conc. 3 μg/ml) is given as 94 % control. Moreover, the “SK Expression (% control)” value in assay [2] (compound conc. 10 μg/ml) is 92 % control. The “SK Expression (% control)” value in assay [2] (compound conc. 30 μg/ml) worked out at 79 % control. Besides, in assay [2] (compound conc. 60 μg/ml), the “SK Expression (% control)” value turned out to be 38 % control.

Values taken from patent publication US8501722B2, “Methods and compositions for treating bacterial infection” (priority 2009, dated 2013).
